Holding throughout (test): relative viability (nuclei count vs DMSO), 5 days (fraction); higher = more cells survive
Compound in the assay “Idelalisib + OSI-027”: CC[C@H](Nc1ncnc2[nH]cnc12)c1nc2cccc(F)c2c(=O)n1-c1ccccc1 [Idelalisib] + COc1cccc2cc(-c3nc([C@H]4CC[C@H](C(=O)O)CC4)n4ncnc(N)c34)[nH]c12 [OSI-027] (partner 0.5 µM)
The method, boiled down:
(§1)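 Lung cancer cell lines in 1536-well plates were dosed by pin tool the day after seeding, either with one drug alone or with a fixed anchor-drug dose plus five library-drug doses (not always all listed) in √10 steps. After 5 days, cells were fixed and their nuclei stained in one step (final 0.05% Triton X-100, 1% formaldehyde, 1 ug/ml Hoechst), then counted on 4× images. Relative viability is the nuclei count in treated wells divided by that in vehicle wells. Values are medians of duplicate plates.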

Compound in the assay “Pemetrexed + Vorinostat”: Nc1nc2[nH]cc(CCc3ccc(C(=O)N[C@@H](CCC(=O)O)C(=O)O)cc3)c2c(=O)[nH]1 [Pemetrexed] + O=C(CCCCCCC(=O)Nc1ccccc1)NO [Vorinostat] (partner 1 µM)
An outline of the steps: as §1

Compound in the assay “Idelalisib + Pemetrexed”: CC[C@H](Nc1ncnc2[nH]cnc12)c1nc2cccc(F)c2c(=O)n1-c1ccccc1 [Idelalisib] + Nc1nc2[nH]cc(CCc3ccc(C(=O)N[C@@H](CCC(=O)O)C(=O)O)cc3)c2c(=O)[nH]1 [Pemetrexed] (partner 0.2 µM)
The method, boiled down: as §1

Compound in the assay “Idelalisib + Trametinib”: CC[C@H](Nc1ncnc2[nH]cnc12)c1nc2cccc(F)c2c(=O)n1-c1ccccc1 [Idelalisib] + CC(=O)Nc1cccc(-n2c(=O)n(C3CC3)c(=O)c3c(Nc4ccc(I)cc4F)n(C)c(=O)c(C)c32)c1 [Trametinib] (partner 0.02 µM)
The method, boiled down:
as §1

Consider UMC-11, for which the relative viability with Idelalisib + OSI-027 (first compound 0.04 µM) amounted to 0.429; with Idelalisib + OSI-027 (first compound 0.1265 µM), 0.491; with Idelalisib + OSI-027 (first compound 0.4 µM) it was 0.542; in the assay with Idelalisib + OSI-027 (first compound 1.265 µM), 0.513; with Idelalisib + OSI-027 (first compound 4 µM), 0.42; in the assay with Pemetrexed + Vorinostat (first compound 0.002 µM) it was 0.425. Also, the relative viability with Pemetrexed + Vorinostat (first compound 0.006325 µM) turned out to be 0.355; with Pemetrexed + Vorinostat (first compound 0.02 µM), 0.44; with Pemetrexed + Vorinostat (first compound 0.06325 µM), 0.347; in the assay with Pemetrexed + Vorinostat (first compound 0.2 µM), 0.35; in the assay with Idelalisib + Pemetrexed (first compound 0.04 µM), 0.673; with Idelalisib + Pemetrexed (first compound 0.1265 µM) it was 0.77. Besides, the relative viability with Idelalisib + Pemetrexed (first compound 0.4 µM) amounted to 0.793; with Idelalisib + Pemetrexed (first compound 1.265 µM), 0.839; in the assay with Idelalisib + Pemetrexed (first compound 4 µM), 0.936; with Idelalisib + Trametinib (first compound 0.04 µM) it was 0.786; in the assay with Idelalisib + Trametinib (first compound 0.1265 µM) it was 0.651; in the assay with Idelalisib + Trametinib (first compound 0.4 µM), 0.629. Moreover, the figures for the relative viability in the assay with Idelalisib + Trametinib (first compound 1.265 µM) and with Idelalisib + Trametinib (first compound 4 µM) were 0.764 and 0.72, respectively.

(Values after the supplement of paper PMC10307832.)
